Values quoted from earlier work in patent US20100247673A1, “Thyroid protection in sickle cell anemia treatment” (priority 2009, published 2010).

System: erythrocytes
Details: about 4 mols incorporated per mol of hemoglobin tetramer

For `N#C[O-].[K+]` [potassium cyanate], the “erythrocytes prevented from sickling” value is listed as “up to 80%”.
